Biological target: T1, PI3Kα (Homo sapiens, UniProt P42336)
T1 construct: His; made in house
Experiment: PI3K alpha TR-FRET assay / PI3K alpha Leadseeker SPA assay
Format: biochemical
Conditions: in at least one experimental run; read-out: IC50 value against PI3Kα
Method: Compounds of the present invention were tested according to the following assays and found as inhibitors of PI3 kinases, particularly PI3Kα. The exemplified compounds were tested and found active against PI3Kα. The IC50's ranged from about 1 nM to 10 μM.
The PI3-Kinase assay has been developed and optimized from a kit produced by Upstate (Millipore). Briefly, this kit contains a biotinylated PIP3 which forms a HTRF (homogeneous time-resolved fluorescence energy transfer) complex when mixed with a Europium labeled anti-GST monoclonal antibody, a GST tagged pleckstrin homology (PH) domain, and Streptavidin-Allophycocyanin (APC). The unlabeled PIP3 produced by PI 3-Kinase activity displaces biotin-PIP3 from the complex resulting in a loss of energy transfer and thus a decrease in signal. Millipore, PI 3-Kinase (human) HTRF™ Assay, technical document associated with catalog# 33-017
Compounds are serially diluted (3-fold in 100% DMSO) across a polypropylene 120 μL mother plate from column 1 to column 12 and column 13 to column 24, leaving columns 6 and 18 containing only DMSO to yield 11 concentrations for each test compound. Once titrations are made, 0.1 μL is transferred to the assay plates (Greiner 784075). This assay plate contains three controls: column 6 with DMSO, and column 18 with alternating 20 μM wortmannin and 40 μM PIP3. […] The PIP3 control is dispensed into the plate manually via a matrix pipettor, 1 μL of 200 μM PIP3 in 1× Reaction buffer to wells 18 B, D, F, H, J, L, N, P.
The PI3-Kinase assay has been developed and optimized from a kit produced by Upstate (Millipore). The assay kit (cat: 33-017) contains seven reagents: 1) 4× Reaction Buffer, 2) PIP2 (1 mM), 3) Stop A, 4) Stop B, 5) Detection Mix A, 6) Detection Mix B, 7) Detection Mix C. In addition the following items were obtained or purchased, PI3Kinase (prepared in-house), 4×PI3K Detection Buffer (Millipore), dithiothreitol (Sigma, D-5545), Adenosine-5′-triphosphate (ATP, Sigma, A-6419), PIP3 (1,2-dioctanoyl-sn-glycero-3[phosphoinositil-3,4,5-triphosphate]tetraammonium salt (Avanti polar lipids, 850186P), DMSO (Sigma, 472301), Wortmannin (Sigma, W-1628).
Prepare 1×PI3Kinase Reaction Buffer by diluting stock 1:4 with de-ionized water, freshly prepared DTT is added at a final concentration of 5 mM on the day of use. Enzyme addition and compound preincubation is initiated by the addition of 2.5 μL of 2× enzyme solution, PI3K alpha in 1× reaction buffer, to all wells using a Multidrop Combi. Plates are incubated at room temperature for 15 minutes. Substrate addition and reaction initiation is completed by the addition of 2.5 μL of 2× substrate solution, PIP2 and ATP in 1× reaction buffer, to all wells using a Multidrop Combi. […] Incubate one hour, evaluate the HTRF signal on the Envision plate reader. […]

T1 sequence (P42336 whole entry): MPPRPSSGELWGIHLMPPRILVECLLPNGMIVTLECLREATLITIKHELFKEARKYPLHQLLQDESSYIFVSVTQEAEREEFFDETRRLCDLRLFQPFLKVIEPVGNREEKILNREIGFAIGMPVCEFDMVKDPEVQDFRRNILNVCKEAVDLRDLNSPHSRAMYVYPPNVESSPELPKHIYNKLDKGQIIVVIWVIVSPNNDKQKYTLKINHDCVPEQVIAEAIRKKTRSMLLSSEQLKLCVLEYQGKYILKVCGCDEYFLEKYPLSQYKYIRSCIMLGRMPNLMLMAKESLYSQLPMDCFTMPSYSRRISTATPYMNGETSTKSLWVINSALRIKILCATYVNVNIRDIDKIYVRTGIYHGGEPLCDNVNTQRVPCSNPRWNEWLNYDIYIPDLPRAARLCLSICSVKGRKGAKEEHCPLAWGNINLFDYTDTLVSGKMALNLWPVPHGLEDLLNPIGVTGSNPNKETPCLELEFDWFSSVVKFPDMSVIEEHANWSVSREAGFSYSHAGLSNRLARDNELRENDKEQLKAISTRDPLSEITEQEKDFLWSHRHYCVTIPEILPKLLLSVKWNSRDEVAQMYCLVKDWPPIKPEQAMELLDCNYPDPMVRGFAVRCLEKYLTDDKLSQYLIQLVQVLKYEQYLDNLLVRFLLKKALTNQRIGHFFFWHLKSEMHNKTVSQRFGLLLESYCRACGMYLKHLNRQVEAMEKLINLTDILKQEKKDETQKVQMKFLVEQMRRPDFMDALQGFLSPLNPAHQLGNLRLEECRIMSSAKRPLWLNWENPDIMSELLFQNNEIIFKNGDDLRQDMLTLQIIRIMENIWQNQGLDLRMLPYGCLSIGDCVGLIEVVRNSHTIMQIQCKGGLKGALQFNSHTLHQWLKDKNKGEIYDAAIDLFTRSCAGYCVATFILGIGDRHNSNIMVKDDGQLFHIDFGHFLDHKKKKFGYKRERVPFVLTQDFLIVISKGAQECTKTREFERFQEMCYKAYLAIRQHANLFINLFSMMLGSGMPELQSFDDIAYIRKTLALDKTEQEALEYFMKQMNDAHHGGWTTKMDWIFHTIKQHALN
T1 sequence (P27986 whole entry partner): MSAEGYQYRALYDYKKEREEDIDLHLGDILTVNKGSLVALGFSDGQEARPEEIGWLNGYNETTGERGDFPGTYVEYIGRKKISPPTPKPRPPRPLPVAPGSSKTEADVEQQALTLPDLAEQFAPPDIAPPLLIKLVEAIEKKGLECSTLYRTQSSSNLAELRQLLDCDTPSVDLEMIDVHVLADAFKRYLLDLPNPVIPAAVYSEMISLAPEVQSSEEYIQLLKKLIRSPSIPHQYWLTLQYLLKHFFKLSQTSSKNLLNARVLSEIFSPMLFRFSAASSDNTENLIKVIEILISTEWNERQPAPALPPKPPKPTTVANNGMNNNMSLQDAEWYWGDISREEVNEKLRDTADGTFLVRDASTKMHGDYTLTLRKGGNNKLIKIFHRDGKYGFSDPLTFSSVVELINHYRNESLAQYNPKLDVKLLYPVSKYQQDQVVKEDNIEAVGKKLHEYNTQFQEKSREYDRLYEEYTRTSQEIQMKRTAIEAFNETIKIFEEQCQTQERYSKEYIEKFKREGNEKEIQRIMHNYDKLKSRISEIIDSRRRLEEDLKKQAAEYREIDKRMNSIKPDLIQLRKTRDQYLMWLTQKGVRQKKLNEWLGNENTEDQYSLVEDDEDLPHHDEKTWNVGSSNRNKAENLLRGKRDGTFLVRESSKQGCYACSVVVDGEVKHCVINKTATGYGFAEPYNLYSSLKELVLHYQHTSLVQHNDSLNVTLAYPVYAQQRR

IC50 [nM] | SMILES
2 | CN(C)c1ncnc2ccc(-c3cncc(NS(=O)(=O)c4ccccc4)c3)nc12 [Example 1, N-{5-[4-(dimethylamino)pyrido[3,2-d]pyrimidin-6-yl]-3-pyridinyl}benzenesulfonamide]
0.7 | O=S(=O)(Nc1cncc(-c2ccc3ncnc(N4CCOCC4)c3n2)c1)c1ccccc1 [Example 2, N-{5-[4-(4-morpholinyl)pyrido[3,2-d]pyrimidin-6-yl]-3-pyridinyl}benzenesulfonamide]
0.5 | COc1ncc(-c2ccc3ncnc(N4CCOCC4)c3n2)cc1NS(=O)(=O)C1CC1 [Example 5, N-{2-(methyloxy)-5-[4-(4-morpholinyl)pyrido[3,2-d]pyrimidin-6-yl]-3-pyridinyl}cyclopropanesulfonamide]
0.02 | O=S(=O)(Nc1cc(-c2ccc3ncnc(N4CCOCC4)c3n2)cnc1Cl)c1ccc(F)cc1F [Example 7, N-{2-chloro-5-[4-(4-morpholinyl)pyrido[3,2-d]pyrimidin-6-yl]-3-pyridinyl}-2,4-difluorobenzenesulfonamide]
